# Columns and labels:
# [1] = Partition coefficient (logP); assay type: physicochemical; details: octanol/water
# [2] = molecular target: T1, Steryl-sulfatase (Homo sapiens) (UniProt P08842); assay: Inhibitory activity against estrone sulfatase relative to Estrone-3-sulfamate (EMATE)
# T1 sequence (whole entry): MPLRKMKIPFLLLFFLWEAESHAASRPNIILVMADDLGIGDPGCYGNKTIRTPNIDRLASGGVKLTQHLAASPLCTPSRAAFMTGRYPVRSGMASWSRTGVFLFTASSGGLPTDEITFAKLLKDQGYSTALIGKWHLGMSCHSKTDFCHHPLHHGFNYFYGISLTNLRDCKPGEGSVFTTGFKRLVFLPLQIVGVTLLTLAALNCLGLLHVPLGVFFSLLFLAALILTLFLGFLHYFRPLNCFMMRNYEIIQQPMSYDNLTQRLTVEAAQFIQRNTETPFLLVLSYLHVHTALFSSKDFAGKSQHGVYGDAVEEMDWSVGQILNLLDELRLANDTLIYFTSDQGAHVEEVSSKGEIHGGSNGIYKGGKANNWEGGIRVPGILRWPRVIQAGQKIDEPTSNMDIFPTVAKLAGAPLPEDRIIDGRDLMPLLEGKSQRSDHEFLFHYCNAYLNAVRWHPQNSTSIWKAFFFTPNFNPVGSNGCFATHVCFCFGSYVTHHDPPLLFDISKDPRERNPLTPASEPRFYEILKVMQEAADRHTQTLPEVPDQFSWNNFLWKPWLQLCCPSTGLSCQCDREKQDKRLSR
# [3] = molecular target: T1, Steryl-sulfatase (Homo sapiens); assay: Inhibitory activity against estrone sulfatase relative to 4-Methylcoumarin-7-O-sulfamate derivative (COUMATE)
# [4] = molecular target: T1, Steryl-sulfatase (Homo sapiens)
# Description: Inhibitory activity against estrone sulfatase expressed as potency
smiles,measurement,setting,value
CCCCC(=O)c1ccc(OS(N)(=O)=O)cc1,logP,[1],2.5
same,Potency,[2],0.0239
same,Potency,[3],0.574
NS(=O)(=O)Oc1ccc(C(=O)/C=C/c2ccccc2)cc1,logP,[1],3.4
same,Potency,[2],0.0019
same,Potency,[3],0.0456
CCCCCCCCCC(=O)c1ccc(OS(N)(=O)=O)cc1,logP,[1],4.4
same,Potency,[2],0.0385
same,Potency,[3],0.923
Cc1cc(=O)oc2cc(OS(N)(=O)=O)ccc12,logP,[1],1.7
same,Potency,[4],1
same,Potency,[2],0.0417
CCCCCCC(=O)c1ccc(OS(N)(=O)=O)cc1,logP,[1],3.3
same,Potency,[2],0.1
same,Potency,[3],2.4
NS(=O)(=O)Oc1ccc(C(=O)Cc2ccccc2)cc1,logP,[1],2.9
same,Potency,[2],0.0152
same,Potency,[3],0.364
CCCCCCCC(=O)c1ccc(OS(N)(=O)=O)cc1,logP,[1],3.7
same,Potency,[2],0.0893
same,Potency,[3],2.14
CC(=O)c1ccc(OS(N)(=O)=O)cc1,logP,[1],1.1
same,Potency,[2],0.0016
same,Potency,[3],0.0397
NS(=O)(=O)Oc1ccc(C(=O)c2ccccc2)cc1,logP,[1],2.9
same,Potency,[2],0.0079
same,Potency,[3],0.191
"C[C@]12CC[C@@H]3c4ccc(OS(N)(=O)=O)cc4CCC3[C@@H]1CCC2=O (single isomer, unassigned) [EMATE]",logP,[1],3.9
same,Potency,[4],1
same,Potency,[3],24
CCCC(=O)c1ccc(OS(N)(=O)=O)cc1,logP,[1],2.1
same,Potency,[2],0.0126
same,Potency,[3],0.301
NS(=O)(=O)Oc1ccc(C=O)cc1,logP,[1],1.4
same,Potency,[2],0.0019
same,Potency,[3],0.0472
CCCCCCCCC(=O)c1ccc(OS(N)(=O)=O)cc1,logP,[1],4.1
same,Potency,[2],0.147
same,Potency,[3],3.53

# — ChEMBL document CHEMBL1134811, “Hydrophobicity, a physicochemical factor in the inhibition of the enzyme estrone sulfatase (ES)” (Bioorg Med Chem Lett, 2001)
